Measurements from paper PMC3017236 (Clinical cancer research : an official journal of the …, 2010).
Entries after “also recorded” stand apart in the source; their conditions may differ. Like-named read-outs stand apart in the source and are kept apart here.

What was measured:
[1] = humans; cited from earlier work
[2] = biological target: T1, organic anion transporter-3 (OAT3) (Homo sapiens, UniProt Q8TCC7); experiment: Uptake in HEK-293 cells transfected with OAT3 vs empty vector; conditions: HEK-293/OAT3, 5 minutes incubation, 0.5 μg/mL
T1 sequence (Q8TCC7 1-542): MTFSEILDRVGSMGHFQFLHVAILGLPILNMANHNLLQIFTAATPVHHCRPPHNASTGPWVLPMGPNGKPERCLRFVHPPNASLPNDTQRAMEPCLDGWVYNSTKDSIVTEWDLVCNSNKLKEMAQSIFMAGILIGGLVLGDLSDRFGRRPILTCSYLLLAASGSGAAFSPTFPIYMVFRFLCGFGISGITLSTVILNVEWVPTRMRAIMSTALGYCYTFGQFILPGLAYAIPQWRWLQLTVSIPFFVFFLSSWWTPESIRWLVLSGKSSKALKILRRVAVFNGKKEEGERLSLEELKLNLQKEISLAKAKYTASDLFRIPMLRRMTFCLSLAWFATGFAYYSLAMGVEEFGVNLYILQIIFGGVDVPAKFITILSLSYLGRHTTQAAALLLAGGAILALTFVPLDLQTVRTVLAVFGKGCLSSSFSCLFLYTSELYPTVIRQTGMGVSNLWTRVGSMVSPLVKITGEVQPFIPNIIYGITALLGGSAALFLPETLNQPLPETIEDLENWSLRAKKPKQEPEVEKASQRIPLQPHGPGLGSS

[3] = biological target: T2, organic cation transporter-2 (OCT2) (Homo sapiens, UniProt O15244); experiment: Uptake in HEK-293 cells transfected with OCT2 vs empty vector; conditions: HEK-293/OCT2, 5 minutes incubation, 0.5 μg/mL
T2 sequence (O15244 1-555): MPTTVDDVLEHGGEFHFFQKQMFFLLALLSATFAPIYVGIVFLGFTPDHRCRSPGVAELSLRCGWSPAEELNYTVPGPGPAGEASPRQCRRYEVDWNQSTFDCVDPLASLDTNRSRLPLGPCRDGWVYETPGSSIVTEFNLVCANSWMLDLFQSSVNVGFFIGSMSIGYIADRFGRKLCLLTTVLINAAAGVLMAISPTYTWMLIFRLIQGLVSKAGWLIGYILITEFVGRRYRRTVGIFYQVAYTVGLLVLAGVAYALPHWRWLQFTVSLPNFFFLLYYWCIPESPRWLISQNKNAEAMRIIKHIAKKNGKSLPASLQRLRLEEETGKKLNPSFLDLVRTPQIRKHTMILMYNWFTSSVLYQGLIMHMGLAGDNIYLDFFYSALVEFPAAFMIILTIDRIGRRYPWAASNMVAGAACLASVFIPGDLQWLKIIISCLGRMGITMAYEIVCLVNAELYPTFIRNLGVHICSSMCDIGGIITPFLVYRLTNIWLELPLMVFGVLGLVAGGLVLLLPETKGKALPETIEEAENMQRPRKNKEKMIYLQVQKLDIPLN

human BCRP = biological target: T3, human BCRP (Homo sapiens, UniProt Q9UNQ0); experiment: Intracellular accumulation in Saos2-BCRP cells vs Saos2-pcDNA3.1; conditions: for Effect of elacridar on intracellular accumulation: Saos2-BCRP cells, pre-incubation 30 minutes with elacridar (4 μM); for Intracellular accumulation vs control cells: Saos2-BCRP vs Saos2-pcDNA3.1, 0.5 μg/mL, 37°C
T3 sequence (Q9UNQ0 1-655): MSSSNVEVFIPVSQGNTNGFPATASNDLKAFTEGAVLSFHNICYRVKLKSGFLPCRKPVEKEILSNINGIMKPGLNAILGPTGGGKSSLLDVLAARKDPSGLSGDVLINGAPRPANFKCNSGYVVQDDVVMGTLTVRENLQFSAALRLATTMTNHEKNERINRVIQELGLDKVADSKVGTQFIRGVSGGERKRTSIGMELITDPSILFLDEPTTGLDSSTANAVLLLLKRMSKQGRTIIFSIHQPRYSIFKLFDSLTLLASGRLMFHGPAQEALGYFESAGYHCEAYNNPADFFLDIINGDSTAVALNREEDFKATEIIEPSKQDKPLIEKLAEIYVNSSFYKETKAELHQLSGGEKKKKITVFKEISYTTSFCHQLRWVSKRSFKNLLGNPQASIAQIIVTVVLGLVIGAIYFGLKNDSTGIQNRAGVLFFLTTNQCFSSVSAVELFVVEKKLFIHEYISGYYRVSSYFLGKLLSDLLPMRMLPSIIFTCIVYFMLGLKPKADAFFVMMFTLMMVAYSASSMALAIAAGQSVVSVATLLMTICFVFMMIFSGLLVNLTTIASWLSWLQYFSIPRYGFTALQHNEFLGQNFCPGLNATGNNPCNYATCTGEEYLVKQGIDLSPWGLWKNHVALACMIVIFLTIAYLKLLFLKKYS

| Structure (SMILES) | Differences in unbound fraction between strains (plasma from each mouse strain, equilibrium dialysis) | Renal clearance component as share of overall elimination [1] | Uptake vs empty vector HEK-293 cells [2] | Uptake vs empty vector HEK-293 cells ([2]; listed as Erlotinib) | Uptake vs empty vector HEK-293 cells [3] | Uptake vs empty vector HEK-293 cells ([3]; listed as Erlotinib) | Effect of elacridar on intracellular accumulation (human BCRP) | Intracellular accumulation vs control cells (human BCRP) | Differences in unbound fraction between strains (mouse, plasma) | Unbound fraction (fu) (mouse, plasma) | Systemic exposure relative to that of erlotinib [1] |
| --- | --- | --- | --- | --- | --- | --- | --- | --- | --- | --- | --- |
| C#Cc1cccc(Nc2ncnc3cc(OCCOC)c(OCCOC)cc23)c1 [erlotinib, Erlotinib] | No significant differences | ~ 10% | significantly higher | higher | significantly increased | higher | significantly increased | significantly lower; also recorded: significantly reduced |  |  |  |
| C#Cc1cccc(Nc2ncnc3cc(OCCOC)c(OCCO)cc23)c1 [OSI-420] |  |  | significantly higher |  | significantly increased |  | significantly increased | significantly lower; also recorded: significantly reduced | No significant differences | 6.6 % ± 0.7% | 10-20% |
